# Experimental data: patent US6242611A, “Phenylimidazolidines containing nitrooxy or carbonyloxy groups” (Hoechst Marion Roussel, priority 1995, dated 2001)
# Assays:
# [1] = test system: Costo-vertebral Gland of the Hamster; experiment: Reducing effect on the costo-vertebral gland of the hamster (local topical antiandrogen activity); format: in vivo, male hamsters (Charles River breed); details: 3 weeks (14 administrations), surface area of C.V.G., male hamsters, compared to animals treated with solvent only
# Protocol: The local activity (topical) of an antiandrogen is determined by the reduction which it produces in the surface area of the costovertebral gland of the hamster (hereafter C.V.G.), an androgen-dependent organ situated on the sides of the animal.
# The animals are male hamsters weighing approximately 140 g, 14 weeks old and originating from the Charles Riverbreed (USA), they are subjected to a long photoperiod (16 hours of light, 8 hours of darkness). The animals are treated every day, except for the weekend, for 3 weeks (14 administrations). The product to be tested is applied, by topical route, to the right-hand G.C.V., the left-hand one serving as the control, the surface of the gland having been shaved beforehand. The animals are sacrificed by bleeding the carotid artery 24 hours after the last treatment. The C.V.G.'s are removed, measured and weighed. The local activity of a product is determined by the % reduction in the surface area of the C.V.G. which it induces in comparison with the 1st of day the experiment and compared to the animals treated with solvent only.
# Androgen Receptor = biological target: T1, Androgen Receptor (Rattus norvegicus, UniProt P15207); experiment: Affinity for the androgen receptor (relative bond affinity, tritiated testosterone displacement, rat prostate cytosol); format: binding, Male Sprague Dawley EOPS rats
# T1 construct: the prostates are removed, weighed and homogenized at 0° C; from tissue; host or cells: prostate cytosol of castrated male Sprague Dawley rats
# T1 sequence (P15207 1-902): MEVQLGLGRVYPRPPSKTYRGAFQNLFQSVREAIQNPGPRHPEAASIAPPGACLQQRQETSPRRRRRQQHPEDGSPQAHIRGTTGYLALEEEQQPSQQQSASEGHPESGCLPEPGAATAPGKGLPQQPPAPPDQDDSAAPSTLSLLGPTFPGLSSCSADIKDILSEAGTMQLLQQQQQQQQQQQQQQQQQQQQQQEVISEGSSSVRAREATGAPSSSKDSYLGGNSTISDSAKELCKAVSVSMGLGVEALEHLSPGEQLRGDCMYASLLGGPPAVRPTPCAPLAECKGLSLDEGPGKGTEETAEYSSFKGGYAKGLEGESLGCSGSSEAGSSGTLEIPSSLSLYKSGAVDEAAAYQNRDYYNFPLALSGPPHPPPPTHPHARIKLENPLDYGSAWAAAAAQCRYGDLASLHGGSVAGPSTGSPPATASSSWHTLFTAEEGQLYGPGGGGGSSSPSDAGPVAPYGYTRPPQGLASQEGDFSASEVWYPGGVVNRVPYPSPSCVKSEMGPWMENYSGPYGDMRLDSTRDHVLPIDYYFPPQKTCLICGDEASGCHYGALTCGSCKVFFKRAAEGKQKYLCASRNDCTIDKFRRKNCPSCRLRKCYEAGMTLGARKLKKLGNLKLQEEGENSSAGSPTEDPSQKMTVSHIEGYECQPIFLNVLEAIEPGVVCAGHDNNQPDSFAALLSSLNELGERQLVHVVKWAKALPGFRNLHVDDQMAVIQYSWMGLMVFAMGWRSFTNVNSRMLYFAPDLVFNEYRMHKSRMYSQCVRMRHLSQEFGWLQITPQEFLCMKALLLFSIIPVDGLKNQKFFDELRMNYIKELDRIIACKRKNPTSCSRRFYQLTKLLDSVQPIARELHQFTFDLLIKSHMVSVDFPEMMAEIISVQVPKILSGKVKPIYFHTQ
# Protocol: The homogenate is then ultracentrifuged at 0° C., for 30 minutes at 209,000 g.
# [2] = test system: Prostate in an Intact Male Rat; experiment: Reducing effect in the weight of the prostate in an intact male rat (systemic antiandrogen activity); format: in vivo, male rats of the Sprague Dawley strain; details: day 0 to day 4 then day 7 to day 10, intact male rats, compared to animals treated with solvent only
# Protocol: The experiment is carried out over two weeks, except for the weekend.
# The product can be administered by oral, sub-cutaneous or percutaneous route.
# The treatment is carried out from day 0 to day 4 then (after the weekend) from day 7 to day 10. The animals are sacrificed the day after the last treatment by bleeding the carotid artery, the prostates are removed and fixed in demineralized water containing 10% formol for 72 hours. They are then dissected and weighed.
smiles,measurement,setting,value
"CC(C)OC(=O)OCCCCN1C(=O)N(c2ccc(C#N)c(C(F)(F)F)c2)C(=O)C1(C)C [Example 1, 4-(3-(4-cyano-3-(trifluoromethyl)-phenyl)-5,5-dimethyl-2,4-dioxo-1-imidazolidinyl)butyl and 1-methylethyl carbonate]",% CVG reduction with 3 μg/jour,[1],-32%
same,RBA: Incubation for 24 hours,Androgen Receptor,19
same,% reduction in the prostate weight with 3 mg/kg P.O.,[2],-5%
